Test [1] relates to HUVEC with or without PBMC (3C, 4H, SAG and LPS systems). The test is described as follows: BioMAP inflammation model systems (3C, 4H, SAG, LPS), cell-based ELISA profiling. Also noted: species or system human. Conditions: 4 systems (3C, 4H, SAG, LPS); concentration of 5 micromolar; 24 h stimulation. (In an ELISA, binding on a coated surface is turned into a signal by an enzyme label.)

The test system of test [2] is monocyte activation. The test is described as follows: Monocyte activation inhibition in cell-based (BioMAP) assay. On the set-up: species or system human. The following applies: weakly inhibit T cell activation, strongly inhibit monocyte activation, MCP-1 and IL-8 (at least 50%) in a cell-based assay. The procedure: Human umbilical vein endothelial cells (HUVEC) were cultured as described in Kunkel et al., 2004, FASEB J 18:1279-1281. Peripheral blood mononuclear cells (PBMC) were prepared from buffy coats (Stanford Blood Bank, Stanford, Calif.) by centrifugation over Hisopaque-1077 (Sigma). Four assay systems, 3C, 4H, SAG, and LPS, were used. For the 3C system, HUVEC were cultured for 24 h in microtiter plates (Falcon; BD Biosciences), in the presence of cytokines IL-1β (1 ng/ml), TNF-α (5 ng/ml), and IFN-γ (20 ng/ml). For the 4H system, HUVEC were cultured in the presence of IL-4 (5 ng/ml) and histamine (10 μM). For the SAG system, HUVEC were cultured with PBMC (7.5×10^4) and SAG (20 ng/ml). For the LPS system, HUVEC were cultured with PBMC (7.5×10^4) and LPS (2 ng/ml). Compounds were added 1 h before stimulation and were present during the entire 24-h stimulation period. Cell-based enzyme-linked immunosorbent assay (ELISAs) were carried out as described. (See Kunkel et al., 2004, FASEB J 18:1279-1281.)

`Cc1ccc(C)c(Cc2nn(C(C)(C)C)c3ncnc(N)c23)c1` [Compound 1]: in test [1], the Activity result was “+”.

With `CC(C)(C)n1nc(Cc2cccc(Br)c2)c2c(N)ncnc21` [Compound 2], the Activity entry in test [1] is given as “+”. In the case of `Cc1cc(C)cc(Cc2nn(C(C)(C)C)c3ncnc(N)c23)c1` [Compound 3], in test [1], the Activity entry is “+”.

Regarding `CC(C)(C)n1nc(Cc2ccc(Cl)c(Cl)c2)c2c(N)ncnc21` [Compound 4], the Activity entry in test [1] was “+”. The same measure, in the same setting: under `Cc1ccc(Cc2nn(C(C)(C)C)c3ncnc(N)c23)cc1C` [Compound 5] stands “+”; under `Cc1cccc(Cc2nn(C(C)(C)C)c3ncnc(N)c23)c1C` [Compound 6], “active”. `CC(C)(C)c1ccc(-c2nn(C(C)(C)C)c3ncnc(N)c23)cc1` [Compound 14]: the Activity entry in test [1] is “+”. As for `CC(C)(C)n1nc(-c2cccc([N+](=O)[O-])c2)c2c(N)ncnc21` [Compound 16], the Activity entry in test [1] is listed as “+”. Consider `CC(C)(C)n1nc(-c2ccc([N+](=O)[O-])cc2)c2c(N)ncnc21` [Compound 18], for which the Activity entry in test [1] is given as “+”. As to `CC(C)(C)n1nc(-c2cccc(OCc3c(Cl)cccc3Cl)c2)c2c(N)ncnc21` [Compound 20], in test [1], the Activity entry is recorded as “+”. As to `CC(C)(C)n1nc(-c2cccc(OCc3ccccc3)c2)c2c(N)ncnc21` [Compound 21], the Activity result in test [1] is “+”. Consider `CC(C)(C)n1nc(-c2cccc(Oc3ccccc3)c2)c2c(N)ncnc21` [Compound 22], for which the result in test [1] was active. For `CC(C)(C)n1nc(Cc2ccc(Cl)cc2)c2c(N)ncnc21` [Compound 23], the Activity result in test [1] is given as “+”. As for `CC(C)(C)n1nc(Cc2cccc(O)c2)c2c(N)ncnc21` [Compound 24], the Activity entry in test [1] is recorded as “+”. For `CC(C)(C)n1nc(Cc2ccc(O)cc2)c2c(N)ncnc21` [Compound 25], the Activity entry in test [1] was “+”. On to `CC(C)(C)n1nc(Cc2ccccc2O)c2c(N)ncnc21` [Compound 26], for which the Activity result in test [1] is “+”. In the case of `COc1ccc(Cc2nn(C(C)(C)C)c3ncnc(N)c23)cc1` [Compound 27], in test [1], the Activity entry is reported as “+”. On the same count and under the same terms, under `COc1ccccc1Cc1nn(C(C)(C)C)c2ncnc(N)c12` [Compound 28] stands “+”; under `CC(C)(C)n1nc(CCc2ccccc2)c2c(N)ncnc21` [Compound 29], “+”. Turning to `Cc1ccccc1Cc1nn(C(C)(C)C)c2ncnc(N)c12` [Compound 31], the “monocyte activation inhibitor classification” value in test [2] is listed as “monocyte activation inhibitor”. In test [1], the outcome was active. In the case of `Cc1cccc(Cc2nn(C(C)(C)C)c3ncnc(N)c23)c1` [Compound 32], in test [1], the Activity result was “+”. Consider `Cc1ccc(Cc2nn(C(C)(C)C)c3ncnc(N)c23)cc1` [Compound 33], for which the Activity result in test [1] is listed as “+”. Take `CC(c1ccccc1)c1nn(C(C)(C)C)c2ncnc(N)c12` (centres unmarked) [Compound 34]: in test [1], the Activity entry is reported as “+”. Take `CC(C)(C)n1nc(CC2CCCC2)c2c(N)ncnc21` [Compound 35]: the Activity entry in test [1] is listed as “+”. Take `CC(C)(C)n1nc(Cc2ccccc2)c2c(N)ncnc21` [Compound 36]: the “monocyte activation inhibitor classification” value in test [2] is given as “monocyte activation inhibitor”. The outcome in test [1] was active. Turning to `CC(C)(C)n1nc(-c2ccccc2Cl)c2c(N)ncnc21` [Compound 37], the Activity entry in test [1] is recorded as “+”. `CC(C)(C)n1nc(C2CCCC2)c2c(N)ncnc21` [Compound 38]: the Activity entry in test [1] is recorded as “+”. Regarding `Cc1cccc(-c2nn(C(C)(C)C)c3ncnc(N)c23)c1` [Compound 39], in test [1], the result was active. On the same count and under the same terms, under `CC(C)(C)n1nc(-c2ccccc2OCc2ccccc2)c2c(N)ncnc21` [Compound 40] stands “+”; under `COC(=O)Cn1nc(Cc2cccc3ccccc23)c2c(N)ncnc21` [Compound 42], “+”. Turning to `CC(C)Cc1n[nH]c2ncnc(N)c12` [Compound 44], the Activity result in test [1] is recorded as “+”. Turning to `Nc1ncnc2[nH]nc(Cc3ccccc3)c12` [Compound 45], in test [1], the Activity entry is “+”. `Cc1n[nH]c2ncnc(N)c12` [Compound 46]: the Activity result in test [1] is listed as “+”. `Nc1ncnc2[nH]nc(-c3ccc4ccccc4c3)c12` [Compound 47]: in test [1], the outcome was active. Take `Nc1ncnc2c1c(-c1ccccc1)nn2-c1ccccc1` [Compound 49]: the Activity entry in test [1] is given as “+”. Same read-out and setting: under `CC(C)n1cc(-c2cccc(O)c2)c2c(N)ncnc21` [Compound 50] stands “active”; under `COCCn1nc(-c2ccccc2)c2c(N)ncnc21` [Compound 51], “+”; under `COCCn1nc(-c2cccc(O)c2)c2c(N)ncnc21` [Compound 52], “active”. Regarding `CC(C)n1cc(-c2cccc(O)c2)c2c(NCc3ccccc3)ncnc21` [Compound 53], the outcome in test [1] was active. Take `CNc1ncnc2c1c(-c1cccc(O)c1)cn2C(C)C` [Compound 55]: the Activity entry in test [1] is recorded as “+”. Still for that read-out and setting: under `CNc1ncnc2c1c(-c1cccc(N)c1)nn2C(C)C` [Compound 56] stands “+”; under `Clc1ncnc2c1c(-c1ccccc1)nn2Cc1ccccc1` [Compound 57], “+”. Turning to `Cn1nc(Cc2ccccc2Br)c2c(N)ncnc21` [Compound 58], the Activity result in test [1] was “+”. Take `CC(C)(C)n1nc(Cc2ccccc2Br)c2c(N)ncnc21` [Compound 59]: the “monocyte activation inhibitor classification” value in test [2] was “monocyte activation inhibitor”. The result in test [1] was active. As to `CC(C)(C)n1nc(Cc2c(Cl)cccc2Cl)c2c(N)ncnc21` [Compound 60], the result in test [1] was active. With `Cn1nc(Cc2ccccc2Cl)c2c(N)ncnc21` [Compound 61], the Activity result in test [1] is reported as “+”. As to `CC(C)n1nc(Cc2ccccc2Cl)c2c(N)ncnc21` [Compound 62], the “monocyte activation inhibitor classification” value in test [2] is on record as “monocyte activation inhibitor”. In addition, the result in test [1] was active. With `Nc1ncnc2c1c(Cc1ccccc1Cl)nn2C1CCCC1` [Compound 63], in test [2], the “monocyte activation inhibitor classification” value is “monocyte activation inhibitor”. Further, the outcome in test [1] was active. On to `CC(C)(C)n1nc(Cc2ccccc2F)c2c(N)ncnc21` [Compound 64], for which, in test [2], the “monocyte activation inhibitor classification” value is “monocyte activation inhibitor”. For the same compound, the result in test [1] was active. For the compound `CC(C)(C)n1nc(Cc2ccccc2C(F)(F)F)c2c(N)ncnc21` [Compound 65], in test [2], the “monocyte activation inhibitor classification” value is “monocyte activation inhibitor”. For the same compound, in test [1], the outcome was active. For `Cc1sccc1Cc1n[nH]c2ncnc(N)c12` [Compound 66], in test [1], the result was active. As for `Cc1sccc1Cc1nn(C(C)(C)C)c2ncnc(N)c12` [Compound 67], in test [1], the result was active. For `CC(C)(C)n1nc(Cc2ccc(Cl)cc2Cl)c2c(N)ncnc21` [Compound 68], in test [1], the Activity entry was “+”. `CC(C)(C)n1nc(Cc2ccc(F)cc2Cl)c2c(N)ncnc21` [Compound 69]: in test [1], the Activity entry is “+”. As for `CCOCCn1nc(Cc2ccccc2Cl)c2c(N)ncnc21` [Compound 70], in test [1], the Activity entry is listed as “+”. As for `CC(C)(C)Cn1nc(Cc2ccccc2Cl)c2c(N)ncnc21` [Compound 72], in test [2], the “monocyte activation inhibitor classification” value was “monocyte activation inhibitor”. The result in test [1] was active. On to `COC(=O)CCCn1nc(Cc2ccccc2Cl)c2c(N)ncnc21` [Compound 73], for which the Activity entry in test [1] is recorded as “+”. In the case of `Nc1ncnc2c1c(Cc1ccccc1Cl)nn2CCCCO` [Compound 74], the Activity result in test [1] was “+”. Take `Nc1ncnc2c1c(Cc1ccccc1Cl)nn2C1CCC(O)CC1` (centres unmarked) [Compound 75]: the Activity result in test [1] is reported as “+”.

On to `CC(C)(C)n1nc(C2(c3ccccc3Cl)CC2)c2c(N)ncnc21` [Compound 77], for which the outcome in test [1] was active. Consider `CC(C)(C)n1nc(Cc2ccc(F)cc2F)c2c(N)ncnc21` [Compound 78], for which, in test [1], the outcome was active.

For `CC(C)(C)n1nc(Cc2cc(F)ccc2F)c2c(N)ncnc21` [Compound 79], in test [1], the outcome was active. Same read-out and setting: under `CN(C)c1ncnc2c1c(Cc1ccccc1Cl)nn2C(C)(C)C` [Compound 80] stands “active”; under `CC(C)(C)n1nc(Cc2c(F)cccc2F)c2c(N)ncnc21` [Compound 81], “active”. As to `CC(C)(C)n1nc(Cc2cccc(F)c2F)c2c(N)ncnc21` [Compound 82], the outcome in test [1] was active. Turning to `CCCn1nc(Cc2ccccc2Cl)c2c(N)ncnc21` [Compound 83], the result in test [1] was active. With `CCCCCn1nc(Cc2ccccc2Cl)c2c(N)ncnc21` [Compound 84], the result in test [1] was active. With `CCC(C)CCn1nc(Cc2ccccc2Cl)c2c(N)ncnc21` (centres unmarked) [Compound 85], the result in test [1] was active. Consider `CC(C)(C)n1nc(-c2cc3ccccc3s2)c2c(N)ncnc21` [Compound 86], for which, in test [1], the result was active. As for `CCCCCCn1nc(Cc2ccccc2Cl)c2c(N)ncnc21` [Compound 87], in test [1], the result was active. Same read-out and setting: under `CC(C)(C)n1nc(-c2ccc(-c3ccccc3)cc2)c2c(N)ncnc21` [Compound 88] stands “active”; under `CCCCn1nc(Cc2ccccc2Cl)c2c(N)ncnc21` [Compound 89], “active”.

Source of the values: patent US9512125B2, “Substituted pyrazolo[3.4-D] pyrimidines as anti-inflammatory agents” (THE REGENTS OF THE UNIVERSITY OF CALIFORNIA, priority 2004, dated 2016).
